Experimental findings from paper doi:10.1101/487637v1, “Chemogenetic ligands for translational neurotheranostics” (biorxiv, 2018) are described below.

Assay [1] has as its target T1, hM4Di (Homo sapiens, UniProt P08173, Y113C/A203G).
T1 construct: gene CHRM4; human M4 muscarinic receptor DREADD; AAV plasmid Addgene #89150; transiently expressed in HEK-293 cells; docking model prints Y113G/A203G, the standard DREADD is Y113C/A203G
T1 sequence (P08173 1-479 Y113C/A203G): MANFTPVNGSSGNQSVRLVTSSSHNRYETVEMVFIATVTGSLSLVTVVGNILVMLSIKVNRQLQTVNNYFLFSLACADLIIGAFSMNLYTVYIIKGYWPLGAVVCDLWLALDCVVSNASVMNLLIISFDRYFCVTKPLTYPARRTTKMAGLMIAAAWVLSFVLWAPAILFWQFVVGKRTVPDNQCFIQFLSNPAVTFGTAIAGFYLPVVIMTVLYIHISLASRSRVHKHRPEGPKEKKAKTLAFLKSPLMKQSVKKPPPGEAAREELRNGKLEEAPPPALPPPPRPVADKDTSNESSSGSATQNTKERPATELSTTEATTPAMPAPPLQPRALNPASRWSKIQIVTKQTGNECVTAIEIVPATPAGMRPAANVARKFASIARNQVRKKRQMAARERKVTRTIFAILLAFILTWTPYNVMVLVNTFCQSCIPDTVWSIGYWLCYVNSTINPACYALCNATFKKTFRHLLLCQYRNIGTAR
The assay is described as follows: [3H]clozapine competition, HEK-293 membranes. Type of assay: binding. Particulars: 2.5 nM [3H]clozapine, 50 mM Tris-HCl pH 7.4, 10 mM MgCl2, RT, 2 h.

For assay [2], the target named is T2, hM3Dq (Homo sapiens, UniProt P20309, Y149C/A239G).
T2 construct: gene CHRM3; human M3 muscarinic receptor DREADD; AAV plasmid Addgene #89149; transiently expressed in HEK-293 cells
T2 sequence (P20309 whole entry Y149C/A239G): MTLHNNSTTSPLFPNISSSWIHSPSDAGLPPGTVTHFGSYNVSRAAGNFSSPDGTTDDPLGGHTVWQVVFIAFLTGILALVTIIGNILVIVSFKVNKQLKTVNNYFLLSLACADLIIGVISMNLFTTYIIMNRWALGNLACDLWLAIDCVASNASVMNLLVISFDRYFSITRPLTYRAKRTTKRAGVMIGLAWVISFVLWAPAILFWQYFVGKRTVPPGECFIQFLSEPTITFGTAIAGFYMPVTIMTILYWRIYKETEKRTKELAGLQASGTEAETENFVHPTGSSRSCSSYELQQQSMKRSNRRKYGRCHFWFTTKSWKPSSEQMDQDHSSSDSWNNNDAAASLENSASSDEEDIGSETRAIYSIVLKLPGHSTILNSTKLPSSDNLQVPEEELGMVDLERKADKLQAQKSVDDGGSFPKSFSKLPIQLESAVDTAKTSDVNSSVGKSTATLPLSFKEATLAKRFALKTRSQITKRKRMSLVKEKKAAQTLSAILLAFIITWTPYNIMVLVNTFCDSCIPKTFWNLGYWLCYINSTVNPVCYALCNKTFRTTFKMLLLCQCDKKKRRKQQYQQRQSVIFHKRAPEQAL
In words: [3H]clozapine competition, HEK-293 membranes. Type of assay: binding. The following applies: 2.5 nM [3H]clozapine, 50 mM Tris-HCl pH 7.4, 10 mM MgCl2, RT, 2 h.

For assay [3], the target named is T3, hM4Di (Homo sapiens, UniProt P08173, A203G/Y113C).
T3 construct: gene CHRM4; human M4 muscarinic receptor DREADD; AAV plasmid Addgene #89150; transiently expressed in HEK-293 cells; docking model prints Y113G/A203G, the standard DREADD is Y113C/A203G
T3 sequence (P08173 1-479 Y113C/A203G): T1 sequence (P08173 1-479 Y113C/A203G)
The assay is described as follows: [3H]clozapine competition, HEK-293 membranes. It counts as binding.

Assay [4] has as its target T1, hM4Di. In words: BRET Galpha-o1 activation, HEK-293. It counts as cell-based. The following applies: agonist; PBS; Galpha-Rluc8, beta1, gamma2-mVenus. Background: Bioluminescence resonance energy transfer reports proximity on the nanometre scale.
The target of assay [5] is T4, hM3Dq (Homo sapiens, UniProt P20309, A239G/Y149C).
T4 construct: gene CHRM3; human M3 muscarinic receptor DREADD; AAV plasmid Addgene #89149; transiently expressed in HEK-293 cells
T4 sequence (P20309 whole entry Y149C/A239G): as above
The assay is described as follows: [3H]clozapine competition, HEK-293 membranes. It counts as binding.

SMILES strings stand for the structures.

One may read the Ki as a dissociation constant, usually derived from enzyme kinetics or from competition with a known ligand. With `CCN1CCN(C2=Nc3cc(Cl)ccc3Nc3ccccc32)CC1` [C13, Compound 13], the Ki at hM4Di [1] and at hM3Dq [2] was 4.3 nM in each case.

In the case of `c1ccc2c(c1)N=C(N1CCNCC1)c1ccccc1N2` [C21, Compound 21], the results for the Ki on hM4Di [3] and at hM3Dq [5] were 91 nM and 230 nM, respectively. Besides, the EC50 result at hM4Di [4] is recorded as “C21 was less potent than clozapine at Gi/o activation in cells or tissue expressing hM4Di”.

As to `CN1CCN(C2=Nc3cc(Cl)ccc3Nc3ccccc32)CC1` [CLZ, clozapine], the EC50 entry at hM4Di [4] is reported as “C21 was less potent than clozapine at Gi/o activation in cells or tissue expressing hM4Di”.
